In patent publication US20220281848A1, “PYRAZOLE-SUBSTITUTED PYRROLIDINONES AS HERBICIDES” (FMC Corporation, priority 2019, published 2022):

Legend:
Type in all cases: in vivo
[1] = system: wheat; test: Test D pre-emergence, wheat seed treated with a herbicide safener; conditions: 100=total damage, 0=no damage
Method in brief: (§1)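 Damage was rated visually from 0 (none) to 100 (total), at 20 DAA for pre-emergence and 15 d for post-emergence. Plants grew from safener-treated seed in a glasshouse at 24/18° C. or 20/16° C. day/night, 65% humidity, watered twice daily.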

[2] = system: ivy-leaved morning glory (Ipomoea hederacea, IPOHE); test: Test A post-emergence, ivy-leaved morning glory; conditions: after 13 d
Method in brief: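 Plants sown in standard soil were grown 8 d in a glasshouse (24/16 °C day/night, 14 h light, 65% humidity), then sprayed with compound in acetone/water (50:50) with 0.5% Tween 20 at 15.625, 62.5 or 250 g/ha. Damage was scored after 13 d (0 = none, 100 = total).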

[3] = system: corn (Zea mays, ZEAMX); test: Test A pre-emergence, corn; conditions: after 13 d
Method in brief: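 Seeds were sown in standard soil in pots, kept one day in a glasshouse (24/16° C. day/night, 14 h light, 65% humidity), then sprayed with compound in acetone/water (50:50) containing 0.5% Tween 20 at 15.625, 62.5 or 250 g/ha. Plants grew on under the same conditions, watered twice daily, and damage was scored after 13 d (0 = none, 100 = total).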

[4] = system: plants; test: Test D post-emergence, other plants of Tables D2 and D4; conditions: "Cereals" Postemergent, evaluated after 15 d
Method in brief: as §1

CCn1nc([C@@H]2CN(C)C(=O)[C@H]2C(=O)Nc2cccc(F)c2F)c2cccc(F)c21 [Compound 14]
damage to plant, TRZAW ([1]; rate 15, 20 DAA): 0 | damage to plant, TRZAW ([1]; rate 30, 20 DAA): 0 | damage to plant, TRZAW ([1]; rate 60, 20 DAA): 0 | damage to plant, TRZAW ([1]; rate 130, 20 DAA): 0 | damage to plant, TRZAW ([1]; rate 250, 20 DAA): 60 | damage to plant, TRZAW ([1]; rate 500, 20 DAA): 90 | damage to plant (100=total damage; 0=no damage) IPOHE ([2]; Post-Emergence at 15.625 g/ha): 10 | damage to plant (100=total damage; 0=no damage) IPOHE ([2]; Post-Emergence at 62.5 g/ha): 30 | damage to plant (100=total damage; 0=no damage) IPOHE ([2]; Post-Emergence at 250 g/ha): 50 | damage to plant (100=total damage; 0=no damage) ZEAMX ([3]; Pre-Emergence at 15.625 g/ha): 20 | damage to plant (100=total damage; 0=no damage) ZEAMX ([3]; Pre-Emergence at 62.5 g/ha): 10 | damage to plant (100=total damage; 0=no damage) ZEAMX ([3]; Pre-Emergence at 250 g/ha): 70 | ALOMY damage rating (100=total damage to plant; 0=no damage to plant) ([4]; Rates 130): 40 | ALOMY damage rating (100=total damage to plant; 0=no damage to plant) ([4]; Rates 250): 60 | ALOMY damage rating (100=total damage to plant; 0=no damage to plant) ([4]; Rates 500): 70 | AVEFA damage rating (100=total damage to plant; 0=no damage to plant) ([4]; Rates 130): 30 | AVEFA damage rating (100=total damage to plant; 0=no damage to plant) ([4]; Rates 250): 70 | AVEFA damage rating (100=total damage to plant; 0=no damage to plant) ([4]; Rates 500): 80 | BEAVA damage rating (100=total damage to plant; 0=no damage to plant) ([4]; Rates 130): 30 | BEAVA damage rating (100=total damage to plant; 0=no damage to plant) ([4]; Rates 250): 30 | BEAVA damage rating (100=total damage to plant; 0=no damage to plant) ([4]; Rates 500): 20 | BROTE damage rating (100=total damage to plant; 0=no damage to plant) ([4]; Rates 130): 0 | BROTE damage rating (100=total damage to plant; 0=no damage to plant) ([4]; Rates 250): 10 | BROTE damage rating (100=total damage to plant; 0=no damage to plant) ([4]; Rates 500): 30 | BRSNN damage rating (100=total damage to plant; 0=no damage to plant) ([4]; Rates 130): 40 | BRSNN damage rating (100=total damage to plant; 0=no damage to plant) ([4]; Rates 250): 50 | BRSNN damage rating (100=total damage to plant; 0=no damage to plant) ([4]; Rates 500): 40 | CHEAL damage rating (100=total damage to plant; 0=no damage to plant) ([4]; Rates 130): 50 | CHEAL damage rating (100=total damage to plant; 0=no damage to plant) ([4]; Rates 500): 40 | GALAP damage rating (100=total damage to plant; 0=no damage to plant) ([4]; Rates 130): 0 | GALAP damage rating (100=total damage to plant; 0=no damage to plant) ([4]; Rates 250): 10 | GALAP damage rating (100=total damage to plant; 0=no damage to plant) ([4]; Rates 500): 20 | HORVW damage rating (100=total damage to plant; 0=no damage to plant) ([4]; Rates 130): 20 | HORVW damage rating (100=total damage to plant; 0=no damage to plant) ([4]; Rates 250): 70 | HORVW damage rating (100=total damage to plant; 0=no damage to plant) ([4]; Rates 500): 70 | KCHSC damage rating (100=total damage to plant; 0=no damage to plant) ([4]; Rates 130): 10 | KCHSC damage rating (100=total damage to plant; 0=no damage to plant) ([4]; Rates 250): 20 | KCHSC damage rating (100=total damage to plant; 0=no damage to plant) ([4]; Rates 500): 20 | LOLPE damage rating (100=total damage to plant; 0=no damage to plant) ([4]; Rates 130): 0 | LOLPE damage rating (100=total damage to plant; 0=no damage to plant) ([4]; Rates 250): 20 | LOLPE damage rating (100=total damage to plant; 0=no damage to plant) ([4]; Rates 500): 50 | POAAN damage rating (100=total damage to plant; 0=no damage to plant) ([4]; Rates 130): 80 | POAAN damage rating (100=total damage to plant; 0=no damage to plant) ([4]; Rates 250): 90 | POAAN damage rating (100=total damage to plant; 0=no damage to plant) ([4]; Rates 500): 90 | POLCO damage rating (100=total damage to plant; 0=no damage to plant) ([4]; Rates 130): 20 | POLCO damage rating (100=total damage to plant; 0=no damage to plant) ([4]; Rates 250): 30 | POLCO damage rating (100=total damage to plant; 0=no damage to plant) ([4]; Rates 500): 40 | STEME damage rating (100=total damage to plant; 0=no damage to plant) ([4]; Rates 250): 50 | STEME damage rating (100=total damage to plant; 0=no damage to plant) ([4]; Rates 500): 70 | VERPE damage rating (100=total damage to plant; 0=no damage to plant) ([4]; Rates 130): 50 | VERPE damage rating (100=total damage to plant; 0=no damage to plant) ([4]; Rates 250): 50
